Reference: patent US10172812B2, “Compounds and methods for treating muscular dystrophy and other disorders” (The Charlotte Mecklenburg Hospital Authority, priority 2017, dated 2019)
“Also recorded” adds a separate entry of the source.

Legend:
Assay type in all cases: in vivo, mouse
[1] = tested on: FKRP-P448L mutant dystrophic mice; test: Treadmill exercise in FKRP P448L mutant mice; details: 1 year treatment, vs saline-treated cohort
Source text: FIG. 6. […] Saline treated control, column 1; C57 normal control, column 8).
(§1) This invention applies tamoxifen and raloxifene for clinical use in FKRP mutant dystrophic mouse models for the treatment of dystroglycanopathies, specifically those caused by mutations in the FKRP gene. Mutations in the FKRP gene cause muscular dystrophy with the lack of functional glycosylation of alpha-dystroglycan (α-DG) as the characteristic biochemical marker in the diseased tissues. Mouse models with the FKRP mutations present in patients show the same biochemical feature as patients' tissues, most prominently in muscles (Chan Y M, Hum Mol Genet 2010, 19(20): 3995-4006; Blaeser A, Hum Genet 2013, 132(8): 923-934). […] Histologically, the diseased muscles undergo continuous degeneration as indicated by the presence of degenerating muscle fibers, variation in fiber size, presence of centrally nucleated fibers (a result of regeneration which is the consequence of muscle damage), inflammatory cells and an increase in non-muscle fiber connective tissues (FIG. 1). […] The best results were obtained with 5-10 mg/kg tamoxifen and 50 mg/kg raloxifene, which would be equivalent to human equivalent dose (HED) of about 0.5 mg/kg for tamoxifen and 5 mg/kg for raloxifene.

[2] = tested on: FKRP-P448L mutant dystrophic mice; test: Overall therapeutic effect (muscle pathology and function) on feeding FKRP-P448L mutant mice; details: for dose giving the best results / muscle pathology and function: feeding 5 days a week; for dose relation of the therapeutic effects: tamoxifen 2, 5, 10, 50 mg/kg/day, raloxifene 10, 50, 100 mg/kg/day
Source text: as §1, with “raloxifene. […] The improvement in muscle function and pathology is even greater after 1 year treatment.” for “raloxifene.”

[3] = tested on: FKRP-P448L mutant dystrophic mice; test: Muscle histology (H&E staining) in FKRP P448L mutant mice; details: for fibrotic streaks in cardiac muscle / histology (H&E) / inflammation, degeneration and fibrotic tissue in skeletal muscle: 1 year of treatment, 5 day a week; for inflammation, degeneration and fibrotic tissue in muscle / muscle pathology (H&E): 6 month treatment, 5 days a week, 10 mg/kg, vs saline
Protocol: FIG. 1. […] C57 normal mouse muscles were used as controls. Saline, mice treated with saline as negative control. […] Hematoxylin and eosin (H&E) staining was used.
FIG. 4. […] H&E staining was used. The therapeutic effect is best seen with 10 mg/kg tamoxifen treatment. […] C57 normal mouse muscles were used as controls. P448-Saline, mice treated with saline as negative control.
as §1, with “raloxifene. […] The improvement in muscle function and pathology is even greater after 1 year treatment.” for “raloxifene.”

[4] = tested on: glycosylated alpha-dystroglycan (α-DG); test: Immunohistochemistry with monoclonal antibody IIH6 on muscles of treated FKRP mutant mice
Source text: FIG. 2. […] C57 normal mouse muscles were used as controls. Saline, mice treated with saline as negative control. The positive staining is seen surrounding the fiber membrane and a few revertant fibers are observed in the saline treated controls.
as §1, with “raloxifene. […] The improvement in muscle function and pathology is even greater after 1 year treatment.” for “raloxifene.”

[5] = tested on: FKRP-P448L mutant dystrophic mice; test: Grip force measurement in FKRP P448L mutant mice
Source text: FIG. 3. […] C57 normal mice muscles as controls. Saline, mice treated with saline as negative control.
FIG. 5. […] Saline treated control, column 1; C57 normal control, column 8).
as §1

[6] = 6 months of treatment, 5 days a week, 10 mg/kg; vs saline
[7] = 50 mg/kg/day, 1 year treatment; vs saline-treated cohort
[8] = 2 mg/kg/day, 1 year treatment; vs saline-treated cohort

O=C(c1ccc(OCCN2CCCCC2)cc1)c1c(-c2ccc(O)cc2)sc2cc(O)ccc12 [raloxifene] was tested, and the treadmill running distance ([1]; 50 mg/kg/day) was “Significant improvement”, the treadmill running time ([1]; 50 mg/kg/day) was “Significant improvement” and the treadmill running distance ([1]; 100 mg/kg/day) was “Significant improvement”. For the same molecule, the treadmill running time ([1]; 100 mg/kg/day) was “Significant improvement”, the “dose giving the best results” value [2] was 50 mg/kg and the “muscle pathology and function” value [2] was “significantly improved muscle pathology and function”. For the same molecule, the “dose relation of the therapeutic effects” value [2] was “dose-related with increasing efficacy”, the “fibrotic streaks in cardiac muscle” value ([3]; 50 mg/kg/day) was “Reduced fibrotic streaks” and the “histology (H&E)” value ([3]; 50 mg/kg/day) was “Improvement in histology”. For the same molecule, the “inflammation, degeneration and fibrotic tissue in skeletal muscle” value ([3]; 50 mg/kg/day) was “Reduction”, the “inflammation, degeneration and fibrotic tissue in muscle” value [3] was “Reduction” and the “muscle pathology (H&E)” value [3] was “significantly improve muscle pathology”. For the same molecule, the “levels of glycosylated alpha-dystroglycan (α-DG) detected with IIH6” value [4, 6] was “enhance the levels of glycosylated alpha-dystroglycan”, the “number of IIH6 positive fibers” value [4, 6] was “clearly increased” and the grip force measurement [5, 7] was “Significant improvement”. For the same molecule, the grip force measurement ([5]; 100 mg/kg/day, 1 year treatment; vs saline-treated cohort) was “Significant improvement” and the “muscle function by grip force measurement” value [5, 6] was “improve muscle function”.

For CC/C(=C(\c1ccccc1)c1ccc(OCCN(C)C)cc1)c1ccccc1 [tamoxifen], the treadmill running distance ([1]; 2 mg/kg/day) was “Significant improvement”, the treadmill running time ([1]; 2 mg/kg/day) was “did not reach significance” and the treadmill running distance ([1]; 10 mg/kg/day) was “Significant improvement”. The treadmill running time ([1]; 10 mg/kg/day) was “Significant improvement”, the treadmill running distance ([1]; 50 mg/kg/day) was “Significant improvement” and the treadmill running time ([1]; 50 mg/kg/day) was “Significant improvement”. The “dose giving the best results” value [2] was 5 to 10 mg/kg, the “muscle pathology and function” value [2] was “significantly improved muscle pathology and function” and the “dose relation of the therapeutic effects” value [2] was “dose-related with increasing efficacy”. The “fibrotic streaks in cardiac muscle” value ([3]; 10 mg/kg/day) was “Reduced fibrotic streaks”, the “histology (H&E)” value ([3]; 10 mg/kg/day) was “Improvement in histology” and the “inflammation, degeneration and fibrotic tissue in skeletal muscle” value ([3]; 10 mg/kg/day) was “Reduction”. The “inflammation, degeneration and fibrotic tissue in muscle” value [3] was “Reduction”, the “muscle pathology (H&E)” value [3] was “significantly improve muscle pathology” and the “levels of glycosylated alpha-dystroglycan (α-DG) detected with IIH6” value ([4]; 6 months of treatment, 5 days a week, 10 mg/kg, vs saline) was “enhance the levels of glycosylated alpha-dystroglycan; also recorded: enhanced expression of alpha-DG”. For the same molecule, the “number of IIH6 positive fibers” value [4, 6] was “clearly increased”, the “grip force measurement (other than hindlimb)” value [5, 8] was “Significant improvement” and the “grip force measurement, hindlimb” value [5, 8] was “did not reach significance”. The grip force measurement ([5]; 10 mg/kg/day, 1 year treatment; vs saline-treated cohort) was “Significant improvement”, the grip force measurement [5, 7] was “Significant improvement” and the “muscle function by grip force measurement” value ([5]; 6 months of treatment, 5 days a week, 10 mg/kg; vs saline; 10 mg/kg) was “improved muscle function”.
